Blank lines part the entries; values can stand above or below the compound they belong to.
Experiment: solvent given as SMILES

- absorption maximum (in ClCCl): 350 nm
SMILES: CN(C)c1cccc(/C=C/c2ncc(-c3ccc(OCc4ccccc4)c(OCc4ccccc4)c3)o2)c1

SMILES: N#Cc1ccc(-c2ccc3c(c2)c2cc(-c4ccc(C#N)cc4)ccc2c2c3nc(-c3ccc(-c4ccc(N(c5ccccc5)c5ccccc5)cc4)cc3)n2-c2ccccc2)cc1
- absorption maximum (in C1CCOC1): 360.44 nm
- absorption maximum (in CC#N): 360.44 nm
- absorption maximum (in CCCCCC): 370.05 nm
- absorption maximum (in CCOCC): 366.21 nm

- absorption maximum (in ClC(Cl)Cl): 314 nm
SMILES: CCCCCCCCc1ccc(-n2c3c4ccccc4nc(-c4ccc(C#N)cc4)c3c3c2c2c(-c4ccc(C#N)cc4)nc4ccccc4c2n3-c2ccc(CCCCCCCC)cc2)cc1

- absorption maximum (in ClC(Cl)Cl): 423 nm
SMILES: CC(C)(C)n1c(=O)c2cc3ccc4cccc5ccc(c2c1=O)c3c45

SMILES: COc1ccc2c(c1)c1cc(OC)ccc1n2-c1nc2ccccc2nc1-n1c2ccc(OC)cc2c2cc(OC)ccc21
- absorption maximum (in Cc1ccccc1): 437 nm

- absorption maximum (in ClCCl): 385 nm
SMILES: Cc1ccc(C#Cc2ccc3nc4ccc(C#Cc5ccc(C)cc5)cn4c(=O)c3c2)cc1

- absorption maximum (in ClC(Cl)Cl): 342 nm
SMILES: FC(F)(F)c1ccc2oc3nc4oc5ccc(-n6c7ccccc7c7ccccc76)cc5c4cc3c2c1

- absorption maximum (in ClCCl): 500 nm
SMILES: CCCCCCn1c(=O)c2c3[nH]c4ccccc4sc3c3c(=O)n(CCCCCC)c(=O)c3c2c1=O

- absorption maximum (in C1CCCCC1): 599 nm
- absorption maximum (in CCOC(C)=O): 601.5 nm
SMILES: CC1=[N+]2C(=C(c3ccc(C(=O)c4ccccc4)cc3)c3ccc(C)n3[B-]2(F)F)C=C1c1cc2n(c1)[B-](F)(F)[N+]1=CC=CC1=C2c1c(C)cc(C)cc1C

- absorption maximum (in ClCCl): 360 nm
SMILES: N#Cc1ccc(/C=C/c2ncc(-c3ccccc3)o2)cc1

SMILES: CC(C)(C)c1ccc2c(c1)c1cc(C(C)(C)C)cc3c1n2-c1cc(-c2ccccc2F)cc2c1B3c1cc(C(C)(C)C)cc3c4cc(C(C)(C)C)ccc4n-2c13
- absorption maximum (in Cc1ccccc1): 471.56 nm

- absorption maximum (in ClCCl): 514 nm
SMILES: CN(C)c1ccc(C#CC2=C3CCc4ccccc4C3=[O+][B-](F)(F)O2)cc1

Source: the Deep4Chem optical property database
